According to patent US20190282673A1, “STAPHTAME ACTIVITY ON BIOFILMS” (priority 2016, published 2019):
Where “and” joins values, the source holds several entries; their conditions need not be identical. Equal values may be shown once. Read-outs that look alike come from different tables or passages of the source.

Legend:
[1] = test system: S. epidermidis strain B9470; experiment: Generation and confirmation of antibiotic persisters (CFU over time); type: cell-based, Staphylococcus epidermidis; settings: for CFU/mL, generation of persisters: Vancomycin 50X, Daptomycin 10X MIC; for CFU/mL, confirmation of persisters (regrown, re-exposed): head prints Vancomycin 100X, Daptomycin 50×
Protocol: (§1) Persisters of S. aureus BK18 and B9377 and S. epidermidis strain B9470 were generated as per protocol described by Lechner, et al (Staphylococcus aureus persisters tolerant to bactericidal antibiotics. Lechner, et al. (2012) J Mol Microbiol Biotechnol; 22(4):235-44). Briefly, colonies were suspended in LB broth and allowed to grow at 37° C., 200 rpm for ˜2 hours. The cultures were pelleted, resuspended in MHB and OD600 was adjusted to 0.5 to 1.0 OD (˜2 to 5×10^8 CFU/mL). […] The test tubes were incubated at 37° C., 200 rpm, and 250 μL was sampled out at 4, 8, and 24 hr time points. This aliquot was pelleted, washed in saline and resuspended in equal volume of saline, diluted and plated on LB agar. Rapid decrease in CFUs, followed by rather stable values for up to 24 hrs, indicated the presence of Daptomycin/Vancomycin tolerant persisters.
(§2) After sampling for P128 and antibiotic activity, the rest of the sample was pelleted, washed in saline and resuspended into fresh media (LB). Allowed to grow at 37° C., 200 rpm until it reaches 1 OD and then the same steps followed as done for generation of persisters. A biphasic growth curve similar to that obtained during generation of persisters would indicate the tolerance to be phenotypic and not genotypic.

[2] = test system: S. epidermidis B9470 biofilms on catheters; experiment: Preformed biofilms on catheters, safranin staining and SEM; type: cell-based, Staphylococcus epidermidis; settings: 18 hrs; P128 8 μg/mL (1×MIC); vancomycin 30 μg/mL (30×MIC)
Protocol: In order to simulate the in vivo conditions for biofilm formation in device associated infections, S. epidermidis B9470 was allowed to form biofilms on the surface of catheters. An overnight-grown culture was diluted 1:40 in TSB containing 4% sodium chloride. Catheter (JMS Infusion set) pieces of 1-2 cm size were cut, slit into two halves and added to the culture. The cultures with catheter pieces were incubated at 37° C. with shaking at 100 rpm for 42 h. Post incubation, the catheters were removed and rinsed twice in PBS to remove the adhering planktonic cells. The biofilms on catheters were challenged with 8 μg/mL of P128 or 30 μg/mL of vancomycin by transferring the catheter pieces into tubes containing the drugs. The tubes were incubated at 37° C. under static conditions for 18 hrs. The catheters were then removed from the tubes, rinsed once in PBS, and immersed in 0.1% safranin [a dye that stains cell wall of bacteria] for 5 min. The stained catheters were washed once in PBS and allowed to dry. After drying, samples were fixed on aluminum stubs with double sided carbon adhesive tape, coated with 5-7 nm thickness gold using a sputter-coating system (Quorum Technologies; Q150T) and examined by SEM (Carl Zeiss. Neon 40) for the presence of biofilm structures.

[3] = test system: S. aureus strains BK18 and B9377; experiment: Generation and confirmation of antibiotic persisters (CFU over time); type: cell-based, Staphylococcus aureus; settings: for CFU/mL, generation of persisters / CFU/mL, confirmation of persisters (regrown, re-exposed): Vancomycin 100X; for CFU/mL, generation of persisters: Daptomycin 50X MIC; for CFU/mL, confirmation of persisters (regrown, re-exposed): Daptomycin 50×; for Drop in CFU at the end of 4 h treatment: generation of persisters
Protocol: as §1, §2

[4] = test system: S. epidermidis; experiment: MIC and checkerboard synergy (broth microdilution) on planktonic cells; type: cell-based, Staphylococcus epidermidis; settings: for MIC: Staphylococcus epidermidis
Protocol: Bacterial cultures at a final cell number of 5×10^5 CFU/mL was added to wells of 96-well microtiter plates (precoated with 0.5% BSA), containing two-fold dilutions of P128 and the second drug in cation adjusted Mueller Hinton Broth (CAMHB). The plates were incubated at 37° C. for 24 h and the individual MICs and the combination MICs were read. The fractional inhibitory concentration index (FICI) was determined using the following equation: FICI=(MIC of drug A in the combination/MIC of drug A alone)+(MIC of drug B in the combination/MIC of drug B alone). The combination was considered to be synergistic when the FICI was ≤0.5; additive when FICI was 0.5-1.0; indifferent when FICI was 1-4 and antagonistic when FICI≥4.
S. epidermidis culture at a final cell number of 5×10^5 CFU/mL was added to wells of 96-well microtiter plates (precoated with 0.5% BSA), containing two-fold dilutions of P128 and either Daptomycin or Oxacillin in cation adjusted Mueller Hinton Broth (CAMHB). CAMHB was supplemented with 50 µg/mL Ca^++ for daptomycin assay. The plates were incubated at 37° C. for 24 h and the individual MICs and the combination MICs were read. The fractional inhibitory concentration index (FICI) was determined using the following equation: FICI=(MIC of drug A in the combination/MIC of drug A alone)+(MIC of drug B in the combination/MIC of drug B alone). The combination was considered to be synergistic when the FICI was ≤0.5; additive when FICI was between 0.5-1.0; indifferent when FICI was between 1-4 and antagonistic when FICI was ≥4. The experiments were performed in triplicate and repeated twice.

Molecule: CN[C@H](CC(C)C)C(=O)N[C@H]1C(=O)N[C@@H](CC(N)=O)C(=O)N[C@H]2C(=O)N[C@H]3C(=O)N[C@H](C(=O)N[C@H](C(=O)O)c4cc(O)cc(O)c4-c4cc3ccc4O)[C@H](O)c3ccc(c(Cl)c3)Oc3cc2cc(c3O[C@@H]2O[C@H](CO)[C@@H](O)[C@H](O)[C@H]2O[C@H]2C[C@](C)(N)[C@H](O)[C@H](C)O2)Oc2ccc(cc2Cl)[C@H]1O [Vancomycin, vancomycin]
- CFU/mL, generation of persisters ([1]; B9470, 0 h): 3.2 × 10^7 CFU/mL
- CFU/mL, confirmation of persisters (regrown, re-exposed) ([1]; B9470, 0 h): 2 × 10^7 CFU/mL
- CFU/mL, generation of persisters ([1]; B9470, 2 h): 1 × 10^6 CFU/mL
- CFU/mL, confirmation of persisters (regrown, re-exposed) ([1]; B9470, 2 h): 1 × 10^5 CFU/mL
- CFU/mL, generation of persisters ([1]; B9470, 4 h): 3 × 10^5 CFU/mL
- CFU/mL, confirmation of persisters (regrown, re-exposed) ([1]; B9470, 4 h): 6 × 10^4 CFU/mL
- CFU/mL, generation of persisters ([1]; B9470, 8 h): 9 × 10^3 CFU/mL
- CFU/mL, confirmation of persisters (regrown, re-exposed) ([1]; B9470, 8 h): 1.5 × 10^4 CFU/mL
- CFU/mL, generation of persisters ([1]; B9470, 24 h): 3 × 10^4 CFU/mL
- CFU/mL, confirmation of persisters (regrown, re-exposed) ([1]; B9470, 24 h): 5 × 10^3 CFU/mL
- Effect on catheter biofilm (safranin/SEM) [2]: minimal effect
- CFU/mL, generation of persisters ([3]; B9377, 0 h): 2.5 × 10^8 CFU/mL
- CFU/mL, confirmation of persisters (regrown, re-exposed) ([3]; B9377, 0 h): 1.5 × 10^8 CFU/mL
- CFU/mL, generation of persisters ([3]; B9377, 4 h): 8 × 10^6 CFU/mL
- CFU/mL, confirmation of persisters (regrown, re-exposed) ([3]; B9377, 4 h): 2 × 10^6 CFU/mL
- CFU/mL, generation of persisters ([3]; B9377, 8 h): 1.9 × 10^6 CFU/mL
- CFU/mL, confirmation of persisters (regrown, re-exposed) ([3]; B9377, 8 h): 2 × 10^6 CFU/mL
- CFU/mL, generation of persisters ([3]; B9377, 24 h): 1.1 × 10^5 CFU/mL
- CFU/mL, confirmation of persisters (regrown, re-exposed) ([3]; B9377, 24 h): 8 × 10^5 CFU/mL
- CFU/mL, generation of persisters ([3]; BK18, 0 h): 2 × 10^8 CFU/mL
- CFU/mL, confirmation of persisters (regrown, re-exposed) ([3]; BK18, 0 h): 1 × 10^8 CFU/mL
- CFU/mL, generation of persisters ([3]; BK18, 4 h): 1 × 10^7 CFU/mL
- CFU/mL, confirmation of persisters (regrown, re-exposed) ([3]; BK18, 4 h): 2.5 × 10^5 CFU/mL
- CFU/mL, generation of persisters ([3]; BK18, 8 h): 2 × 10^6 CFU/mL
- CFU/mL, confirmation of persisters (regrown, re-exposed) ([3]; BK18, 8 h): 1 × 10^5 CFU/mL
- CFU/mL, generation of persisters ([3]; BK18, 24 h): 4 × 10^5 CFU/mL
- CFU/mL, confirmation of persisters (regrown, re-exposed) ([3]; BK18, 24 h): 1 × 10^5 CFU/mL
- Drop in CFU at the end of 4 h treatment [3]: Approximately two log drop in CFU

Molecule: CCCCCCCCCC(=O)N[C@@H](Cc1c[nH]c2ccccc12)C(=O)N[C@H](CC(N)=O)C(=O)N[C@@H](CC(=O)O)C(=O)N[C@@H]1C(=O)NCC(=O)N[C@@H](CCCN)C(=O)N[C@@H](CC(=O)O)C(=O)N[C@H](C)C(=O)N[C@@H](CC(=O)O)C(=O)NCC(=O)N[C@H](CO)C(=O)N[C@@H]([C@H](C)CC(=O)O)C(=O)N[C@@H](CC(=O)c2ccccc2N)C(=O)O[C@@H]1C [Daptomycin, daptomycin]
- MIC ([4]; ATCC12228, S. epidermidis ATCC 12228, read-out: MIC (drug alone)): 1 µg/mL
- MIC ([4]; S. epidermidis B9467, read-out: MIC (drug alone)): 2 µg/mL
- MIC ([4]; S. epidermidis B9468, read-out: MIC (drug alone)): 0.5 µg/mL
- MIC ([4]; S. epidermidis B9471, read-out: MIC (drug alone)): 2 µg/mL
- MIC ([4]; S. epidermidis B9472, read-out: MIC (drug alone)): 2 µg/mL
- MIC ([4]; S. epidermidis strains of Tables 7 and 8, read-out: MIC over the strains): 0.5 to 2 µg/mL
- CFU/mL, generation of persisters ([1]; B9470, 0 h): 3.2 × 10^7 CFU/mL
- CFU/mL, confirmation of persisters (regrown, re-exposed) ([1]; B9470, 0 h): 1 × 10^7 CFU/mL
- CFU/mL, generation of persisters ([1]; B9470, 2 h): 1 × 10^7 CFU/mL
- CFU/mL, confirmation of persisters (regrown, re-exposed) ([1]; B9470, 2 h): 9 × 10^4 CFU/mL
- CFU/mL, generation of persisters ([1]; B9470, 4 h): 2.3 × 10^6 CFU/mL
- CFU/mL, confirmation of persisters (regrown, re-exposed) ([1]; B9470, 4 h): 4 × 10^3 CFU/mL
- CFU/mL, generation of persisters ([1]; B9470, 8 h): 5 × 10^5 CFU/mL
- CFU/mL, confirmation of persisters (regrown, re-exposed) ([1]; B9470, 8 h): 6 × 10^2 CFU/mL
- CFU/mL, generation of persisters ([1]; B9470, 24 h): 3 × 10^6 CFU/mL
- CFU/mL, confirmation of persisters (regrown, re-exposed) ([1]; B9470, 24 h): 5 × 10^3 CFU/mL
- CFU/mL, generation of persisters ([3]; B9377, 0 h): 2.5 × 10^8 CFU/mL
- CFU/mL, confirmation of persisters (regrown, re-exposed) ([3]; B9377, 0 h): 2.5 × 10^8 CFU/mL
- CFU/mL, generation of persisters ([3]; B9377, 4 h): 4 × 10^3 CFU/mL
- CFU/mL, confirmation of persisters (regrown, re-exposed) ([3]; B9377, 4 h): 6 × 10^3 CFU/mL
- CFU/mL, generation of persisters ([3]; B9377, 8 h): 1 × 10^3 CFU/mL
- CFU/mL, confirmation of persisters (regrown, re-exposed) ([3]; B9377, 8 h): 1 × 10^3 CFU/mL
- CFU/mL, generation of persisters ([3]; B9377, 24 h): 5.5 × 10^3 CFU/mL
- CFU/mL, confirmation of persisters (regrown, re-exposed) ([3]; B9377, 24 h): 9 × 10^2 CFU/mL
- CFU/mL, generation of persisters ([3]; BK18, 0 h): 2 × 10^8 CFU/mL
- CFU/mL, confirmation of persisters (regrown, re-exposed) ([3]; BK18, 0 h): 1 × 10^8 CFU/mL
- CFU/mL, generation of persisters ([3]; BK18, 4 h): 3 × 10^3 CFU/mL
- CFU/mL, confirmation of persisters (regrown, re-exposed) ([3]; BK18, 4 h): 3 × 10^2 CFU/mL
- CFU/mL, generation of persisters ([3]; BK18, 8 h): 1 × 10^3 CFU/mL
- CFU/mL, confirmation of persisters (regrown, re-exposed) ([3]; BK18, 8 h): 1 × 10^2 CFU/mL
- CFU/mL, generation of persisters ([3]; BK18, 24 h): 5 × 10^3 CFU/mL
- CFU/mL, confirmation of persisters (regrown, re-exposed) ([3]; BK18, 24 h): 6 × 10^2 CFU/mL
- Drop in CFU at the end of 4 h treatment [3]: 5 log

B1: P128: anti-staphylococcal chimeric protein: phage tail associated muralytic enzyme (TAME) cell wall-degrading region plus staphylococcus-specific binding region; SEQ ID NO: 1 (protein)
chain: MSLDSLKKYNGKLPKHDPSFVQPGNRHYKYQCTWYAYNRRGQLGIPVPLWGDAADWIGGAKGAGYGVGRTPKQGACVIWQRGVQGGSPQYGHVAFVEKVLDGGKKIFISEHNYATPNGYGTRTIDMSSAIGKNAQFIYDKKLETPNTGWKTNKYGTLYKSESASFTPNTDIITRTTGPFRSMPQSGVLKAGQTIHYDEVMKQDGHVWVGYTGNSGQRIYLPVRTWNKSTNTLGVLWGTIK
modifications: P128 chimera
- MIC (drug alone) ([4]; S. epidermidis ATCC 12228): 4 µg/mL
- MIC (drug alone) ([4]; S. epidermidis B9467): 32 µg/mL
- MIC (drug alone) ([4]; S. epidermidis B9468): 2 µg/mL
- MIC (drug alone) ([4]; S. epidermidis B9470): 8 µg/mL
- MIC (drug alone) ([4]; S. epidermidis B9472): 16 µg/mL and 8 µg/mL
- MIC (drug alone) ([4]; S. epidermidis B9473): 16 µg/mL
- MIC over the strains ([4]; S. epidermidis strains of Tables 7 and 8): 2 to 32 µg/mL
- Effect on catheter biofilm (safranin/SEM) [2]: eradication of the biofilm
